Our source for the Ki, IC50 and inhibition values is patent publication US20050101595A1, “N-containing cycloalkyl-substituted amino-thiazole derivatives and pharmaceutical compositions for inhibiting cell proliferation and methods for their use” (PFIZER INC., priority 2003, published 2005).

One assay deals with CDK2/Cyclin A (Homo sapiens, UniProt P24941). Nature of the assay: Inhibition of CDK2/Cyclin A Retinoblastoma Kinase Activity. It is filed as biochemical. The conditions noted are these: apparent Ki, CDK2/proteolyzed cyclin A, Rb fragment substrate, 25 μM ATP. The method, boiled down: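 Radiometric filter-binding readout of phosphate transfer to an Rb substrate fragment by purified CDK2/truncated cyclin A at 10 or 19 nM. Run at pH 7.4 with 25 μM ATP, 30 °C, 60–75 min, linear rates; background without enzyme subtracted, Ki from competitive-inhibition models.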

Assay [1] addresses human CDK4 and genetically truncated (1-264) cyclin D3 (Homo sapiens, UniProt P11802). Nature of the assay: Inhibition of CDK4/Cyclin D Retinoblastoma Kinase Activity. It is filed as biochemical. The settings on record: for pKi: apparent Ki, CDK4/truncated cyclin D3, Rb fragment substrate, 25 μM ATP. The method, boiled down:
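Apparent Ki values come from competitive or competitive tight-binding inhibition fits of background-corrected 32P/33P incorporation into His-tagged Rb fragment (386-928), captured on nitrocellulose. Reaction: 5 nM insect-cell-expressed human CDK4 with cyclin D3 (1-264), 25 μM ATP, pH 7.4 HEPES, 2% DMSO, 30° C., 20 min, extended to 60 min for tight-binding inhibitors.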

For another assay, the system named is HCT-116 cell line. As to the kind of experiment: Inhibition of cell growth, tetrazolium salt (MTT) assay. It is filed as cell-based. The conditions noted are these: Homo sapiens, HCT-116, 120 h, MTT, three to five days, read-out: HCT-116 IC50. The method, boiled down: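 First, cells were seeded in McCoy's 5A medium and held 4 h. Next, inhibitor concentrations in 0.5% (v/v) DMSO were applied for three to five days at 37° C, 5% CO2. Finally, after 4 h with 0.2 mg/mL MTT and medium removal, solubilized formazan was measured at 540 nm.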

The structures appear in SMILES notation. pIC50, pKi: −log10 of the molar value. Where a name gives a salt, the structure may show the parent alone. Read-outs that look alike come from different tables or passages of the source.

Chain of human CDK4 and genetically truncated (1-264) cyclin D3 (P11802 whole entry, the tested form may be a part): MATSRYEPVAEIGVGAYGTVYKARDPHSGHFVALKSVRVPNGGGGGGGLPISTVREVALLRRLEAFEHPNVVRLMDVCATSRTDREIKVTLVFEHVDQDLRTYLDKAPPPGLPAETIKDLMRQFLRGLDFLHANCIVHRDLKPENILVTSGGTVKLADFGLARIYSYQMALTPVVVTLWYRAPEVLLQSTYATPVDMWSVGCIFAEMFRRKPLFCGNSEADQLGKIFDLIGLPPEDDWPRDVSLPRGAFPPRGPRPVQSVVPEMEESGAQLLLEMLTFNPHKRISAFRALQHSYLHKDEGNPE
Chain of human CDK4 and genetically truncated (1-264) cyclin D3 (P30281 1-264 partner): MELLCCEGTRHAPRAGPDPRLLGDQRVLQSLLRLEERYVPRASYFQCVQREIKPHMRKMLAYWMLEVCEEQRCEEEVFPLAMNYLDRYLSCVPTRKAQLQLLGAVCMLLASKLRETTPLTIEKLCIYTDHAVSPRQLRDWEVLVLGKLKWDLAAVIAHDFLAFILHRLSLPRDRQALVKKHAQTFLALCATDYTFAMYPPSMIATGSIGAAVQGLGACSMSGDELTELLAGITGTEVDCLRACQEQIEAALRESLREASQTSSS

For `CS(=O)(=O)N1CCCC(Nc2nc(N)c(C(=O)c3c(F)cccc3F)s2)C1` (centres unmarked) [Example F37, [4-Amino-2-(1-methanesulfonyl-piperidin-3-ylamino)-thiazol-5-yl]-(2,6-difluoro-phenyl)-methanone], the pKi on CDK2/Cyclin A was 6.37; in assay [1], 5.96. In addition, the negative logarithm of the IC50 (pIC50) in the assay with HCT-116 cell line (first HCT-116 column (c4)) is 6.15; in the assay on HCT-116 cell line (second HCT-116 column (c5)), 5.82.
The corresponding values for `COC(=O)CCc1ccc(S(=O)(=O)N2CCC(Nc3nc(N)c(C(=O)c4c(F)cccc4F)s3)CC2)cc1` [Example F46] are 9.10, 8.70, 6.10 and less than 5.30.
The matching figures for `Nc1nc(NC2CCN(S(=O)(=O)c3cnc(Cl)nc3)CC2)sc1C(=O)c1c(F)cccc1F` [Example F47]: 9.57, 9.16, 6.05 and 5.64.
On to `Cn1cc(S(=O)(=O)N2CCC(Nc3nc(N)c(C(=O)c4c(F)cccc4F)s3)CC2)nc1Br` [Example F48, {4-Amino-2-[1-(2-bromo-1-methyl-1H-imidazole-4-sulfonyl)-piperidin-4-ylamino]-thiazol-5-yl}-(2,6-difluoro-phenyl)-methanone], for which, at CDK2/Cyclin A, the negative-log Ki (pKi) is 8.12. Moreover, the inhibition at 0.05 µM in assay [1] is 37%. The pIC50 in the assay with HCT-116 cell line (first HCT-116 column (c4)) is 5.49; in the assay on HCT-116 cell line (second HCT-116 column (c5)) it was 5.30.
As to `Nc1nc(NC2CCN(S(=O)(=O)c3ccc(Br)s3)CC2)sc1C(=O)c1c(F)cccc1F` [Example F50, 1-{4-Amino-2-[1-(5-bromo-thiophene-2-sulfonyl)-piperidin4-ylamino]-thiazol-5-yl}1-(2,6-difluoro-phenyl)-methanone], the negative-log Ki (pKi) on CDK2/Cyclin A was 8.96; in assay [1] it was 8.49. For the same molecule, the figures for the pIC50 in the assay with HCT-116 cell line (first HCT-116 column (c4)) and with HCT-116 cell line (second HCT-116 column (c5)) were 6.55 and 5.59, respectively.
The matching figures for `Nc1nc(NC2CCN(S(=O)(=O)c3cccs3)CC2)sc1C(=O)c1c(F)cccc1F` [Example F51, {4-Amino-2-[1-(thiophene-2-sulfonyl)-piperidin4-ylamino]-thiazol-5-yl}-(2,6-difluoro-phenyl)-methanone]: 8.82, 8.26, 6.52 and 6.20.
Take `CN1CC[C@H](c2ccc(S(=O)(=O)N3CCC(Nc4nc(N)c(C(=O)c5c(F)cccc5F)s4)CC3)cc2)C1` [Example F52, (4-Amino-2-{1-[4-(1-methyl-pyrrolidin-3R-yl)-benzenesulfonyl]-piperidin-4-ylamino}-thiazol-5-yl)-(2,6-difluoro-phenyl)-methanone]: the pKi was 9.00 on CDK2/Cyclin A and 9.28 in assay [1]. Moreover, the pIC50 in the assay with HCT-116 cell line (first HCT-116 column (c4)) is 7.03; with HCT-116 cell line (second HCT-116 column (c5)), 6.30.
As for `CN1CC[C@@H](c2ccc(S(=O)(=O)N3CCC(Nc4nc(N)c(C(=O)c5c(F)cccc5F)s4)CC3)cc2)C1` [Example F53, (4-Amino-2-{1-[4-(1-methyl-pyrrolidin-3S-yl)-benzenesulfonyl]-piperidin-4-ylamino}-thiazol-5-yl)-(2,6-difluoro-phenyl)-methanone], the pKi on CDK2/Cyclin A is 8.89; in assay [1] it was 9.21. The pIC50 was 7.05 with HCT-116 cell line (first HCT-116 column (c4)) and 6.30 in the assay with HCT-116 cell line (second HCT-116 column (c5)).
`CN(C)CCN(C)c1ccc(S(=O)(=O)N2CCC(Nc3nc(N)c(C(=O)c4c(F)cccc4F)s3)CC2)cn1` [Example G1, Trifluoroacetic Acid Salt]: the negative logarithm of the Ki (pKi) at CDK2/Cyclin A is 8.85; in assay [1], 9.19. Also, the pIC50 in the assay on HCT-116 cell line (first HCT-116 column (c4)) was 6.92; in the assay with HCT-116 cell line (second HCT-116 column (c5)) it was less than 6.30.
Turning to `Nc1nc(NC2CCN(S(=O)(=O)c3ccc(NCCO)nc3)CC2)sc1C(=O)c1c(F)cccc1F` [Example G3, 1-(4-Amino-2{1-[6-(2-hydroxy-ethylamino)-pyridine-3-sulfonyl]-piperidin-4-ylamino}-thiazol-5-yl)-1-(2,6-difluoro-phenyl)-methanone], the negative-log Ki (pKi) is greater than 9.00 at CDK2/Cyclin A and 8.92 in assay [1]. Also, the pIC50 in the assay on HCT-116 cell line (first HCT-116 column (c4)) was 5.77; in the assay with HCT-116 cell line (second HCT-116 column (c5)) it was less than 5.30.
For `Nc1nc(NC2CCN(S(=O)(=O)c3ccc(N4CC[S+]([O-])CC4)nc3)CC2)sc1C(=O)c1c(F)cccc1F` [Example G4, 1-(4-Amino-2-{1-[6-(1-oxo-thiomorpholine-4-yl)-pyridine-3-sulfonyl]-piperidin-4-ylamino}-thiazol-5-yl)-1-(2,6-difluoro-phenyl)-methanone], the figures for the pKi (at CDK2/Cyclin A; in assay [1]) were 8.85 and 9.03, respectively. The pIC50 was 5.82 with HCT-116 cell line (first HCT-116 column (c4)) and 5.30 in the assay on HCT-116 cell line (second HCT-116 column (c5)).
The corresponding values for `CN1CCN(c2ccc(S(=O)(=O)N3CCC(Nc4nc(N)c(C(=O)c5c(F)cccc5F)s4)CC3)cn2)CC1` [Example G5, 1-(4-Amino-2-{1-[6-(4-methyl-piperazin-1-yl)-pyridine-3-sulfonyl]-piperidin-4-ylamino}-thiazol-5-yl)-1-(2,6-difluoro-phenyl)-methanone] are 8.89, 8.89, 7.54 and less than 6.30.
The matching figures for `Nc1nc(NC2CCN(S(=O)(=O)c3ccc(N4CCNCC4)nc3)CC2)sc1C(=O)c1c(F)cccc1F` [Example G6, 1-{4-Amino-2-[1-(6-piperazin-1-yl-pyridine-3-sulfonyl)-piperidin-4-ylamino]-thiazol-5-yl}-1-(2,6-difluoro-phenyl)-methanone]: 9.16, 9.27, 6.68 and 5.49.
For `CNc1ccc(S(=O)(=O)N2CCC(Nc3nc(N)c(C(=O)c4c(F)cccc4F)s3)CC2)cn1` [Example G7, 1-{4-Amino-2-[1-(6-methylamino-pyridine-3-sulfonyl)-piperidin-4-ylamino]-thiazol-5-yl}-1-(2,6-difluoro-phenyl)-methanone], the pKi at CDK2/Cyclin A was 9.12; in assay [1], 8.80. Besides, the pIC50 was 6.74 with HCT-116 cell line (first HCT-116 column (c4)) and 6.19 in the assay with HCT-116 cell line (second HCT-116 column (c5)).
Regarding `Nc1ccc(S(=O)(=O)N2CCC(Nc3nc(N)c(C(=O)c4c(F)cccc4F)s3)CC2)cn1` [Example G8, 1-{4-Amino-2-[1-(6-amino-pyridine-3-sulfonyl)-piperidin-4-ylamino]-thiazol-5-yl}-1-(2,6-difluoro-phenyl)-methanone], the pKi at CDK2/Cyclin A is 9.22; in assay [1], 8.72. For the same molecule, the negative-log IC50 (pIC50) with HCT-116 cell line (first HCT-116 column (c4)) is 6.23; with HCT-116 cell line (second HCT-116 column (c5)) it was 5.66.
The corresponding values for `Nc1nc(NC2CCN(S(=O)(=O)c3ccc(N4CCC(O)CC4)nc3)CC2)sc1C(=O)c1c(F)cccc1F` [Example G9, 1-{4-Amino-2-[1-(4Hydroxy-3,4,5,6-tetrahydro-2H-[1,2′]bipyridinyl-5′-sulfonyl)-piperidin-4-ylamino]-thiazol-5-yl}-1-(2,6-difluoro-phenyl)-methanone] are 9.28, 8.66, 6.77 and 5.74.
The corresponding values for `CN(CCO)c1ccc(S(=O)(=O)N2CCC(Nc3nc(N)c(C(=O)c4c(F)cccc4F)s3)CC2)cn1` [Example G10] are greater than 9.00, 8.92, 6.17 and less than 5.30.
The matching figures for `Nc1nc(NC2CCN(S(=O)(=O)c3ccc(N4CCC(O)C4)nc3)CC2)sc1C(=O)c1c(F)cccc1F` (centres unmarked) [Example G11, 1-(4-Amino-2-{1-[6-(3-hydroxy-pyrrolidin-1-yl)-pyridin-3-sulfonyl]-piperidin-4-ylamino}-thiazol-5-yl)-1-(2,6-difluoro-phenyl)-methanone Trifluoroacetic Acid Salt]: greater than 9.00, 9.07, 6.38 and less than 5.30.
For the molecule `Nc1nc(NC2CCN(S(=O)(=O)c3ccc(N4CCCC(O)C4)nc3)CC2)sc1C(=O)c1c(F)cccc1F` (centres unmarked) [Example G12, 1-{4-Amino-2-[1-(3-hydroxy-3,4,5,6-tetrahydro-2H-[1,2′]bipyridinyl-5′-sulfonyl)-piperidin-4-ylamino]-thiazol-5-yl}-1-(2,6-difluoro-phenyl)-methanone Trifluoroacetic Acid Salt], the negative-log Ki (pKi) on CDK2/Cyclin A was 9.31; in assay [1] it was 8.92. The pIC50 in the assay with HCT-116 cell line (first HCT-116 column (c4)) is 6.55; in the assay on HCT-116 cell line (second HCT-116 column (c5)), less than 6.30.
Turning to `Nc1nc(NC2CCN(S(=O)(=O)c3ccc(N4CCC[C@@H]4CO)nc3)CC2)sc1C(=O)c1c(F)cccc1F` [Example G13, 1-{4-Amino-2-{1-[6-(2R-hydroxymethyl-pyrrolidin-1-yl)-pyridine-3-sulfonyl]-piperidin-4-ylamino}-thiazol-5-yl)-1-(2,6-difluoro-phenyl)-methanone Trifluoroacetic Acid Salt], the negative logarithm of the Ki (pKi) at CDK2/Cyclin A is greater than 9.00; in assay [1], 9.19. For the same molecule, the pIC50 in the assay with HCT-116 cell line (first HCT-116 column (c4)) is 6.77; with HCT-116 cell line (second HCT-116 column (c5)) it was 5.41.
